Values of other authors in patent US20240091144A1, “MULTI-LAYER ORAL THIN FILM” (LTS Lohmann Therapie-Systeme AG, priority 2021, published 2024).

Columns and labels:
[1] = compared with (R)-ketamine
[2] = at 20° C.

Row | SMILES | analgesic and anaesthetic potency relative to the (R) form [1] | pKs [2]
1 | CNC1(c2ccccc2Cl)CCCCC1=O (racemic) [(S)-ketamine, (S)-(±)-2-(2-chlorophenyl)-2-(methylamino)cyclohexan-1-one] | approximately three times higher | –
2 | NC(CO)(CO)CO [TRIS, tris(hydroxymethyl)aminomethane] | – | 8.2
